Measurements reported in publication PMC7277544, “A Fluorescence-Based Method to Measure ADP/ATP Exchange of Recombinant Adenine Nucleotide Translocase in Liposomes” (Biomolecules, 2020).

Biological target: T1, adenine nucleotide translocase 1 (ANT1) (Mus musculus, UniProt P48962)
T1 construct: gene Slc25a4; recombinant murine ANT1 from E. coli inclusion bodies, reconstituted into liposomes
T1 sequence (P48962 2-298): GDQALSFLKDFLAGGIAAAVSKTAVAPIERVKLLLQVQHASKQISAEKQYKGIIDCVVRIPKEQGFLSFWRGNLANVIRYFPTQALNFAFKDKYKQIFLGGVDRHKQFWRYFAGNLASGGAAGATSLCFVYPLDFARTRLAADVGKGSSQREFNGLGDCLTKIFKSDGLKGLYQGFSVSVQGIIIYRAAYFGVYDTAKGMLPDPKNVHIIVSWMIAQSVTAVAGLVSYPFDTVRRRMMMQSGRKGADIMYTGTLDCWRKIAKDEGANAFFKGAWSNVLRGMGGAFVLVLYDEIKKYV
Assay: 3H-ATP uptake into ANT1 proteoliposomes (transport rate)
Type: biochemical

Nc1ncnc2c1ncn2[C@@H]1O[C@H](COP(=O)(O)OP(=O)(O)OP(=O)(O)O)[C@@H](O)[C@H]1O [ATP, adenosine triphosphate]
3H-ATP uptake into ANT1 proteoliposomes (transport rate): 2.90 ± 0.47 mmol/min/g
